The IC50 is the concentration that gives 50% inhibition. Low values mean greater potency in that assay, high ones weaker potency in that assay. As a reminder, the melting point is the temperature, or range, at which the solid turns liquid.

The structures appear in SMILES notation.

The record followed here is patent publication US9108941B2, “Griseofulvin analogues for the treatment of cancer by inhibition of centrosomal clustering” (DEUTSCHES KREBSFORSCHUNGSZENTRUM STIFTUNG DES OEFFENTLICHEN …, priority 2008, dated 2015).

Data set [1] deals with GFP-α-tubulin expressing SCC114 cells. Description: Treatment of GFP-α-tubulin expressing SCC114 cells with griseofulvin analogues (inhibition of centrosomal clustering). The class given is cell-based. To be noted: Homo sapiens, Table 1, analogues diluted 100 micromolar to 10 nanomolar. The protocol: Cell Culture. All cell lines were cultured in Dulbecco's modified Eagle's Medium (DMEM; PAA Laboratories, Pasching, Austria) supplemented with 10% FCS (PAA). SCC114 cells stably expressing GFP-α-tubulin were generated by transfection (Eugene 6, Roche Diagnostics, Mannheim, Germany) of the transgene in pEGFP-C1 (Clontech, Heidelberg, Germany) and maintained under selective pressure by addition of geniticin (Invitrogen, Karlsruhe, Germany) Primary normal human epidermal keratinocytes (NHEK; PromoCell, Heidelberg, Germany) were cultured in Keratinocyte Growth Medium 2 (PromoCell). When indicated a griseofulvin analogue was added to the culture medium. The griseofulvin analogue was dissolved in DMSO (Sigma). In all experiments, the final DMSO concentration was 0.1%.
Treatment of GFP-α-tubulin expressing SCC114 cells with griseofulvin analogues. Analogues were dissolved in DMSO/water and diluted to span a concentration range of 100 micromolar to 10 nanomolar.

`COc1cc(OC)c2c(c1Cl)O[C@]1(C2=O)C(OCc2ccccc2I)=CC(=O)C[C@H]1C` [Compound 4, (2S,6′R)-(7-Chloro-4,6-dimethoxy-benzofuran-3-one)-2-spiro-1′-(2′-(2-iodobenzyloxy)-6′-methyl-cyclohex-2′-ene-4′-one)] registered a melting point of 167 to 169 °C. Moreover, in data set [1], the IC50 worked out at 5.8 µM.
For `CCCOC1=C(I)C(=O)C[C@@H](C)[C@]12Oc1c(Cl)c(OC)cc(OC)c1C2=O` [Compound 11, (2S,6′R)-(7-Chloro-4,6-dimethoxy-benzofuran-3-one)-2-spiro-1′-(3′-iodo-6′-methyl-2′-propoxy-cyclohex-2′-ene-4′-one)], in that order: 98 to 100 °C and 2.1 µM.
In the case of `COc1cc(OC)c2c(c1Cl)O[C@]1(C2=O)C(OCc2ccc(CBr)cc2)=CC(=O)C[C@H]1C` [Compound 7, (2S,6′R)-(7-Chloro-4,6-dimethoxy-benzofuran-3-one)-2-spiro-1′-(6′-methyl-2′-(4-bromo-methylbenzyloxy)-cyclohex-2′-ene-4′-one)], in data set [1], the IC50 amounted to 4.7 µM.
In the case of `COc1cc(OC)c2c(c1Cl)O[C@]1(C2=O)C(Oc2ccccc2)=CC(=O)C[C@H]1C` [Compound 10, (2S,6′R)-(7-Chloro-4,6-dimethoxy-benzofuran-3-one)-2-spiro-1′-(6′-methyl-2′-phenoxy-cyclohex-2′-ene-4′-one)], half-maximal inhibition in data set [1] (IC50) was put at 1.5 µM.
For `COc1cc(OC)c2c(c1Cl)O[C@]1(C2=O)C(OCc2ccc(I)cc2)=CC(=O)C[C@H]1C` [Compound 2, (2S,6′R)-(7-Chloro-4,6-dimethoxy-benzofuran-3-one)-2-spiro-1′-(2′-(4-iodobenzyloxy)-6′-methyl-cyclohex-2′-ene-4′-one)], the melting point was in the range of 166 to 168 °C. Moreover, the IC50 in data set [1] amounted to 3.3 µM.
On to `COc1cc(OC)c2c(c1Cl)O[C@]1(C2=O)C(OCc2ncc(C)c([N+](=O)[O-])c2C)=CC(=O)C[C@H]1C` [Compound 8, (2S,6′R)-(7-Chloro-4,6-dimethoxy-benzofuran-3-one)-2-spiro-1′-(6′-methyl-2′-((3,5-dimethyl-4-nitro-pyrid-2-yl)methyloxy)-cyclohex-2′-ene-4′-one)], for which the IC50 in data set [1] amounted to 9.1 µM.
For `COc1cc(OC)c2c(c1Cl)O[C@]1(C2=O)C(OCc2cccc(I)c2)=CC(=O)C[C@H]1C` [Compound 3, (2S,6′R)-(7-Chloro-4,6-dimethoxy-benzofuran-3-one)-2-spiro-1′-(2′-(3-iodobenzyloxy)-6′-methyl-cyclohex-2′-ene-4′-one)], the melting point lay in the range of 171 to 174 °C.
Molecule `COc1cc(OC)c2c(c1Cl)O[C@]1(C2=O)C(OCc2ccc(CO)cc2)=CC(=O)C[C@H]1C` [Compound 6, (2S,6′R)-(7-Chloro-4,6-dimethoxy-benzofuran-3-one)-2-spiro-1′-(6′-methyl-2′-(4-hydroxymethylbenzyloxy)-cyclohex-2′-ene-4′-one)] returned an IC50 in data set [1] of 1.2 µM. In other words, the single-digit micromolar range.
In turn, `COc1cc(OC)c2c(c1Cl)O[C@]1(C2=O)C(OCc2ccc(Cl)cc2)=CC(=O)C[C@H]1C` [Compound 1, (2S,6′R)-(7-Chloro-4,6-dimethoxy-benzofuran-3-one)-2-spiro-1′-(2′-(4-chlorobenzyloxy)-6′-methyl-cyclohex-2′-ene-4′-one)] registered a melting point of 173 to 175 °C. The IC50 in data set [1] was found to be 3.4 µM.
For `COc1cc(OC)c2c(c1Cl)O[C@]1(C2=O)C(OCc2ccc(C)cc2)=CC(=O)C[C@H]1C` [Compound 5, (2S,6′R)-(7-Chloro-4,6-dimethoxy-benzofuran-3-one)-2-spiro-1′-(6′-methyl-2′-(4-methylbenzyloxy)-cyclohex-2′-ene-4′-one)], the melting point lay within 176 to 178 °C. In data set [1], this molecule had an IC50 of 0.9 µM.
For `COc1cc(OC)c2c(c1Cl)O[C@]1(C2=O)C(OCc2ccc(-c3ccccc3)cc2)=CC(=O)C[C@H]1C` [Compound 9, (2S,6′R)-(7-Chloro-4,6-dimethoxy-benzofuran-3-one)-2-spiro-1′-(2′-(4-biphenylmethoxy)-6′-methyl-cyclohex-2′-ene-4′-one)], it took 3.2 µM to reach half-maximal inhibition in data set [1] (IC50).
